Where “and” joins values, the source holds several entries; their conditions need not be identical. Identical values can stand only once.
Key:
[1] = test system: MiaPaCa-2 cells; experiment: Intracellular uptake by LC-MS/MS
Protocol: Cells were grown on 10 cm dishes and treated with the compounds for 24 h in full media.
Next we investigated the relative uptake of different Mito-Met analogs (Mito-Met2, Mito-Met6, and Mito-Met10) and phenformin in MiaPaCa-2 cells (FIG. 12D). Cells were treated with respective Mito-Met analog (1 μM) for 1 h. Cells were lysed after washing and analyzed for Mito-Met analog by LC-MS.

[2] = mouse
Protocol: In an initial proof-of-concept experiment, syngeneic KPC cells expressing Firefly luciferase (FC1242-luc) were orthotopically implanted to the pancreas of C57BL/6 mice and tumor growth monitored using bioluminescence imaging (FIG. 15F). Mice orthotopically autografted with FC1242-luc cells were treated daily with 1 mg/kg or 150 mg/kg Met, or 1 mg/kg Mito-Met. […] Serum from these animals was collected, and hepatic and kidney toxicity tested using standard AST, ALT, AP, and BUN assays, respectively.

[3] = molecular target: mitochondrial complex I (Homo sapiens, UniProt O75251+O75306+P03886); experiment: Complex I oxygen consumption (pyruvate/malate) in permeabilized cells, Seahorse XF96; type: cell-based
Protocol: Respiratory enzyme activity in intact and permeabilized cells. The mitochondrial function in intact and permeabilized pancreatic cancer cells was measured using a Seahorse XF96 Extracellular Flux Analyzer (Seahorse Bioscience, North Billerica, Mass., USA). Unless specified otherwise, assays in intact cells were performed as previously described. Measurement of mitochondrial respiratory complexes in permeabilized cells was performed according to the manufacturer's instructions (Seahorse Bioscience). Briefly, intact cells were permeabilized using 1 nM Plasma Membrane Permeabilizer (PMP, Seahorse Bioscience) immediately before oxygen consumption rate (OCR) measurement by XF96. The oxygen consumption derived from mitochondrial complex I or complex II activity was measured by providing different substrates to mitochondria, e.g., pyruvate/malate for complex I and succinate for complex II activity. Rotenone, malonate and antimycin A were used as specific inhibitors of mitochondrial complex I, II and III activities, respectively.
The oxygen consumption rate was measured using the permeabilized MiaPaCa-2 cells in MAS buffer supplemented with pyruvate. The use of permeabilized cells avoids differences in cellular uptake of compounds. […] We tested the effect of pretreating cells with Mito-Met10 or Met using the permeabilized model. MiaPaCa-2 cells were treated with Met and Mito-Met10 for 24 h and the oxygen consumption studies were performed in these cells after permeabilization.

[4] = test system: MCF-10A; experiment: IncuCyte cell confluence assay, nonmalignant breast epithelial cells; type: cell-based
Protocol: IncuCyte Analyzer-real time measurement of cell proliferation. The cell proliferation was measured using a label-free, noninvasive cellular confluence assay by IncuCyte Live-Cell Imaging Systems (Essen Bioscience, Ann Arbor, Mich., USA; IncuCyte FLR). This system enables collection of live cell images at 2 h intervals over several days. The IncuCyte Analyzer provides real-time cellular confluence data based on segmentation of high-definition phase-contrast images. The cell proliferation is expressed as an increase in percentage of cell confluence.

[5] = test system: MiaPaCa-2 cells; experiment: Sytox Green cytotoxicity assay; type: cell-based; settings: 100 μM, 24 h
Protocol: Cytotoxicity assay. To determine the cytotoxicity of Mito-Met analogs and other TPP^+-conjugated to a long chain aliphatic hydrocarbon, we used the Sytox assay as described previously. MiaPaCa-2 cells were treated for 24 h, and dead cells were monitored in the presence of 200 nM Sytox Green (Invitrogen). The Sytox method labels the nuclei of dead cells yielding green fluorescence. Fluorescence intensities from the dead cells in 96-well plate were acquired in real time every 15 min after 4 h using a plate reader (BMG Labtech, Inc.) equipped with an atmosphere controller set at 37° C. and 5% CO2:95% air, using a fluorescence detection with 485 nm (excitation) and 535 nm (emission). To measure the total cell number, all of the samples in each treatment group were permeabilized by adding Triton X 100 (0.065%) in the presence of Sytox Green for 3 h, and maximal fluorescence intensities were taken as 100%. Data are represented as a percentage of dead cells after normalization to total cell number for each group.
Induction of cell death was monitored by Sytox Green staining, as shown previously. MiaPaCa-2 cells were treated with Mito-Met10 (100 μM), Mito-CP (100 μM), or Met (30 mM) and other controls for 24 h and cell death was measured in real time.

[6] = test system: AMPK; experiment: Immunoblot of phosphorylated AMPK Thr-172 relative to total AMPK, FC1199 cells; type: cell-based; settings: murine FC1199, 1 μM, 30 min
Protocol: In this example, the inventors have shown that the mito-met compounds of the present invention cause an increased AMPK activation in cancer cells. In preliminary experiments (FIG. 4), human MiaPaCa2 and murine FC1199 PDAC cells treated 30 min with 1 μM mito-met (MM), 1 mM Met, or the oligomycin positive control were lysed, and proteins size-separated on SDS-PAGE, transferred to PVDF, and probed with an antibody to phosphorylated AMPK Thr-172.
Immunoblotting. MiaPaCa-2 PDAC cells (1×10^6) were plated to 80% confluency in 60 mm dishes and then serum-starved for 5 hours. […] Cells were stimulated with oligomycin as a positive control. After stimulation, cells were washed twice in cold PBS and lysed using a modified RIPA buffer. Lysates were normalized for protein concentration, size separated using reducing SDS-PAGE, electro-transferred to PVDF membranes (Millipore) and then probed using primary and horseradish peroxidase-conjugated secondary antibodies. Antibodies against total or phosphorylated 5′ AMP-activated protein kinase (AMPK) were purchased from Cell Signaling Technology (Danvers, Mass.) and used at the manufacturer's recommended dilutions. Proteins were visualized by chemiluminescence with auto-exposure and quantified by densitometric analysis using the FluorChem HD2 from Cell Biosciences (Santa Clara, Calif.).
AMPK activation in Mito-Met and Met-treated PDAC cells. […]

[7] = test system: MiaPaCa-2 cells; experiment: Three-dimensional spheroid growth in Matrigel; type: cell-based, human
Protocol: Three-dimensional spheroid cell cultures of PDAC. MiaPaCa-2 cells (5,000) were seeded in 96-well plates containing Matrigel (Corning), used as scaffold. This typical 3D-cell culture system allows spheroids to form within the matrix. […] At days 3, 7, and 14 the wells were observed by bright-field microscopy and images acquired on a Nikon Eclipse Ti inverted microscope (Nikon instrument Inc., NY, USA). Spheroid-forming cells were counted using the Nikon NIS Elements imaging software (Nikon). Data are expressed as mean and SD of number of spheroids.
We tested the antiproliferative effects of Mito-Met and Met in the multicellular spheroid model (FIG. 11A). MiaPaCa-2 cells were cultured for 14 days in Matrigel and treated with Mito-Met10 and Met.

mitochondrial complex I, sequence (O75306 34-463): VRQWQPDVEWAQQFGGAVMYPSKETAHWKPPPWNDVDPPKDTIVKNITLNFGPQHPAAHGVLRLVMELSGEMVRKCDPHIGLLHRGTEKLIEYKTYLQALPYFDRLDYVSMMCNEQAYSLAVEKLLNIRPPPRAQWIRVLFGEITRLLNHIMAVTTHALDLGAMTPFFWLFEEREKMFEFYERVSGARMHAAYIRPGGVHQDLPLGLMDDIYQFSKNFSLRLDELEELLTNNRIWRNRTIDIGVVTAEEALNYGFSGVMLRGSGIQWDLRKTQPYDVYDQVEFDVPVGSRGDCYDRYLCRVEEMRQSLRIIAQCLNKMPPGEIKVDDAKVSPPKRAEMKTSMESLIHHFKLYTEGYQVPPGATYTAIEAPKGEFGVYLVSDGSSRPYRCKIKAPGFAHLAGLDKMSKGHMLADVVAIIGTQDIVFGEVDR
mitochondrial complex I, sequence (O75251 39-213): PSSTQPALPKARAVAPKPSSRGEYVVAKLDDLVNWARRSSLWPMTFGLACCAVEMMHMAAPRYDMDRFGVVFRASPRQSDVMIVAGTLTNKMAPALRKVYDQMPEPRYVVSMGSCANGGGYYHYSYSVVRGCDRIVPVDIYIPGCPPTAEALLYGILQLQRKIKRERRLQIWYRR
mitochondrial complex I, sequence (P03886 whole entry): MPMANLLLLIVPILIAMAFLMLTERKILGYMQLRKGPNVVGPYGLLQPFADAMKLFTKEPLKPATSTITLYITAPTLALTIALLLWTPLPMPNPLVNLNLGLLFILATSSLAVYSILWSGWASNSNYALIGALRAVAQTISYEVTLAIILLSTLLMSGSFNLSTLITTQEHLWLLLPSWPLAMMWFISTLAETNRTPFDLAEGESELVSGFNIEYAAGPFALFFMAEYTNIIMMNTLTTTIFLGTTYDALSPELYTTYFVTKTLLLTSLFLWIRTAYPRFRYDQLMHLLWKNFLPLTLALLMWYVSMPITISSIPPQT
mitochondrial complex I, sequence (O75489 37-264, further chain): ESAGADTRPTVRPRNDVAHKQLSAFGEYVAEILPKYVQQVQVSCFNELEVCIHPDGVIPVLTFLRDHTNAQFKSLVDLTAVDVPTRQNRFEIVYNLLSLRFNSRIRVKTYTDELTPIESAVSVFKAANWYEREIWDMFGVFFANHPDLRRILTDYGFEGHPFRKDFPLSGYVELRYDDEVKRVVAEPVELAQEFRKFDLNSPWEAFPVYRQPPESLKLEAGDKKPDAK
mitochondrial complex I, sequence (P03897 whole entry, further chain): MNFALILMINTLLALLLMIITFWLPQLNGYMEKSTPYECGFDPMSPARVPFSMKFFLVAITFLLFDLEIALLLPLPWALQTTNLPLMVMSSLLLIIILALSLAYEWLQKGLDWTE

With `Br.N=C(N)NC(=N)NCCCCCCCCCC[P+](c1ccccc1)(c1ccccc1)c1ccccc1` [Mito-Met10] the “difference in intracellular uptake and retention, MiaPaCa-2 and MCF-10A cells” value ([1]; LC-MS) was “four-fold”, the “cellular uptake relative to phenformin” value ([1]; MiaPaCa-2, LC-MS) was about 100 fold and the “toxicity in vivo (hepatic and kidney)” value [2] was “neither Met nor the mitochondria-targeted analog Mito-Met elicited toxicity”. For the same compound, the Kidney BUN ([2]; in vivo, 1 mg/kg) was 27 ± 4 mg/dL, the “Liver ALT” value ([2]; in vivo, 1 mg/kg) was 26 ± 10 IU/L and the “Liver AST” value ([2]; in vivo, 1 mg/kg) was 89 ± 16 IU/L. The “concentration giving significant decrease in OCR (complex I inhibition)” value ([3]; 24 h treatment, then permeabilized) was 0.75 µM, the “fold more effective than Met in inhibiting complex I-mediated oxygen consumption” value ([3]; MiaPaCa-2) was 2,000 fold and the IC50 ([3]; read-out: IC50, mitochondrial complex I-mediated oxygen consumption, MiaPaCa-2, 24 h pretreatment, then permeabilized) was 0.4 µM and ~0.43 µM. The “effect on cell confluence” value [4] was “not significantly affected”, the “cell death, Sytox Green staining” value [5] was “no detectable cell death” and the “increase in active AMPK (phosphorylated relative to total protein)” value [6] was 1.5-2.5 fold. For the same compound, the “fold more effective than Met in inhibiting PDAC proliferation, 2D and 3D cell growth assays” value [7] was 1,000- to 10,000 fold and the PDAC spheroid growth ([7]; 0.5 μM, 14 days) was “potently inhibited PPAC spheroid growth”.

From patent US20190358247A1 (The Medical College of Wisconsin, Inc., priority 2016, published 2019)
